Measured values reported in patent US5166348A, “Bornyl and isobornyl esters of carboxylic acids of condensed tetrahydroquinoxalines” (Uralsky politekhnichesky institut, priority 1989, dated 1992).
“And” between values parts separate entries of the source, which are not always exact repeats. Identical values can stand only once. “Also recorded” adds a separate entry of the source. Like-named read-outs stand apart in the source and are kept apart here.

Assays:
mice [1] = settings: mouse, in vivo
[2] = acute toxicity, oral, mongrel albino mice; settings: mouse, in vivo
Method: Acute toxicity of the proposed compounds 1a through 1e was tested in experiments on mongrel albino mice with oral administration of the drug.

influenza virus B = format: in vivo, albino mice; settings: for % of diseased mice and of died mice / % of diseased mice and died mice / Efficiency, % / Elongation of animal life in test group (compared with control) / Mean Incubation / Protection factor / Elongation of animals life in test group compared with control / Mean incubation period / Factor of reduction of number of diseased mice (protection factor): influenza virus B; for Factor of reduction of number of diseased mice (protection factor): compared with control
viruses = experiment: spectrum of antiviral activity, summary
[3] = tested on: influenza virus C, C(Leningrad)412/83; format: in vivo, chick embryos
RS virus = RS virus reproduction in the lungs of infected cotton rats; format: in vivo; settings: intranasally
Method: (§1) Activity of the proposed compound 1a to the agent causing respiratory syncytial infection was tested. […]

[4] = tested on: influenza virus C, C(Leningrad)393/87; format: in vivo, chick embryos
[5] = tested on: tick-borne encephalitis virus (Absettar strain); format: in vivo, mongrel albino mice
influenza virus [6] = format: in vivo, mice
mice [7] = experiment: toxicity for mice; settings: compared with remantadine
[8] = tested on: influenza virus C, C(Ulan-Ude)131/86; format: in vivo, chick embryos
influenza virus C = experiment: activity against influenza virus C in chick embryos, summary; format: in vivo
Description: The activity of the proposed compound 1a against influenza virus C has been studied.

[9] = tested on: influenza virus C, C(USA)1233/47; format: in vivo, chick embryos
influenza virus [10] = format: in vivo, mice; remark: listed apart in the source
influenza virus [11] = settings: given intranasally to pregnant mice + influenza virus
[12] = tested on: RS virus (strain Novoshakhtinsky 3080); experiment: reproduction of RS virus in L-41 tissue culture; format: cell-based
Method: as §1

[13] = 0.2 ml of 0.5% solution into the stomach
[14] = 1 mg/mouse, 24 hours and 1 hour before and 24, 48 and 72 hours after infection

CCC(N)C12CC3CC(CC(C3)C1)C2 (stereo not shown) [adapromine, reference compound]
Toxicity for mice (mice [1]): 6 mg/mouse | LD50 [2]: 45 mg/kg | % of diseased mice and of died mice (influenza virus B; per os, 1 mg per animal): 25% and 12% and 20% | Minimum effective dose against influenza viruses, type B (influenza virus B; influenza virus type B): 1.0 mg/mouse | Chemotherapeutic index for influenza viruses, type B (influenza virus B; influenza virus type B, toxicity vs minimum effective dose): 6

CC1=C(C(=O)OC2CC3CCC2(C)C3(C)C)C2Nc3ccccc3N(C)C2O1 (stereo not shown) [compound 1a, isobornyl ester of 2,9-dimethyl-3a,4,9,9a-tetrahydrofuro [2,3-b] quinoxaline-3-carboxylic acid]
Toxicity for mice (mice [1]): 16 mg/mouse | spectrum of antiviral activity (in words) (viruses): most pronounced effect against the virus of the tick-borne encephalitis, epidemic, influenza viruses A, B and C, including those resistant to remantadine, and also the virus causing respiratory syncytial infection | Titre of virus (lg) in embryo [3]: 3.5 ± 0.3 lg | Inhibition of virus reproduction (lg) ([3]; vs solvent control): 1.5 lg | virus reproduction in the lungs (in words) (RS virus): decreases the virus reproduction in the lungs of the animals | mean titre of the virus lower than in control group (RS virus; lungs, vs control group): 1.8-2.0 lg | Titre of virus (lg) in embryo [4]: 3.2 ± 0.3 lg | Inhibition of virus reproduction (lg) ([4]; vs solvent control): 1.3 lg | Efficiency, % [5, 13]: 70% | Elongation of animal life in group of treated animals [5, 13]: 1.5 days | Mean incubation period [5, 13]: 11.4 days | % of diseased mice and mice which died ([5]; 0.2 ml of 0.5% solution into the stomach, 4 h before and 24, 48, 72, 96 h after infection): 18.7% | Factor of reduction of quantity of diseased mice (protective factor) ([5]; 0.2 ml of 0.5% solution into the stomach, vs physiological saline control): 3.3 | activity against the causative agent of tick-borne encephalitis (in words) ([5]; mouse, in vivo): antiviral activity of the compound against the causative agent of tick-borne encephalitis; also recorded: highly active against the causative agent of tick-borne encephalitis | mortality rate ([5]; test group, control group 62.5%): 18.7% | decrease of mortality rate, times less ([5]; test vs control group): 3.3 times | protection and growth of nurslings, course of infection (in words) (influenza virus [6]; mouse, in vivo): protects their nurslings from infection and death; moreover, it promotes their normal growth as estimated by gain in weight; also recorded: almost does not differ from the weight of young mice borne from control mice; also recorded: promotes an asymptomatic course of infection in pregnant mice and formation of immunity in their posterity | Mean weight of suckling mice, g, day 0 (influenza virus [6]; plus influenza virus, day 0): 1.5 g | Mean weight of suckling mice, g, day 3 (influenza virus [6]; plus influenza virus, day 3): 2.6 g | Mean weight of suckling mice, g, day 5 (influenza virus [6]; plus influenza virus, day 5): 3.4 g | Mean weight of suckling mice, g, day 7 (influenza virus [6]; plus influenza virus, day 7): 3.4 g | Mean weight of suckling mice, g, day 9 (influenza virus [6]; plus influenza virus, day 9): 3.6 g | toxicity lower than that of remantadine, times (mice [7]): 2.5-3 times | Titre of virus (lg) in embryo [8]: 3.6 ± 0.3 lg | Inhibition of virus reproduction (lg) ([8]; vs solvent control): 1.6 lg | activity against influenza virus C (in words) (influenza virus C): inhibits reproduction of influenza virus C | Titre of virus (lg) in embryo [9]: 2.8 ± 0.4 lg | Inhibition of virus reproduction (lg) ([9]; vs solvent control): 1.7 lg | % of lethal cases among mice after infection of their mothers, in 6 days (influenza virus [10]; given to female mice + virus, 6 days): 3% | % of lethal cases among mice after infection of their mothers, in 7 days (influenza virus [10]; given to female mice + virus, 7 days): 10% | % of lethal cases among mice after infection of their mothers, in 8 days (influenza virus [10]; given to female mice + virus, 8 days): 10% | % of lethal cases among mice after infection of their mothers, in 9 days (influenza virus [10]; given to female mice + virus, 9 days): 10% | % of lethal cases among mice after infection of their mothers, in 10 days (influenza virus [10]; given to female mice + virus, 10 days): 13% | protection of sucklings (in words) (influenza virus [10]; given to pregnant or nursing mice): protects the sucklings from trasnplacental infection with the virus or infection from a diseased mouse | Mortality rate among suckling mice, %, 4 days after infection (influenza virus [11]; 4 days): 0% | Mortality rate among suckling mice, %, 7 days after infection (influenza virus [11]; 7 days): 7% | Mortality rate among suckling mice, %, 8 days after infection (influenza virus [11]; 8 days): 23% | Mortality rate among suckling mice, %, 11 days after infection (influenza virus [11]; 11 days): 23% | % of test tubes with degenerated culture ([12]; L-41 tissue culture): 17% | Intensity of reduction of quantity of test tubes with degenerated cultures ([12]; L-41 tissue culture): 0.18 | Factor of reduction of quantity of test tubes with degenerated cultures ([12]; L-41 tissue culture, vs 0.9% NaCl solution): 5.3 | effect on reproduction of RS virus (in words) ([12]; tissue culture L-41, strain Novoshakhtinsky 3030 as printed in text): inhibits reproduction of RS virus | % of diseased mice and died mice (influenza virus B; [14]): 20% | Efficiency, % (influenza virus B; [14]): 73% | Elongation of animal life in test group (compared with control) (influenza virus B; [14]): 2.4 days | Mean Incubation (influenza virus B; [14]): 11.0 | Protection factor (influenza virus B; [14]): 3.7 | % of diseased mice and of died mice (influenza virus B; per os, 1 mg per animal): 20% | Efficiency, % (influenza virus B; per os, 1 mg per animal): 73% | Elongation of animals life in test group compared with control (influenza virus B; per os, 1 mg per animal): 2.4 days | Mean incubation period (influenza virus B; per os, 1 mg per animal): 11.0 days | Factor of reduction of number of diseased mice (protection factor) (influenza virus B; per os, 1 mg per animal): 3.7 | Minimum effective dose against influenza viruses, type B (influenza virus B; influenza virus type B): 0.04 mg/mouse

CCN1c2ccccc2NC2C(C(=O)OC3CC4CCC3(C)C4(C)C)=C(C)OC21 (stereo not shown) [compound 1b, isobornyl ester of 2-methyl-9-ethyl-3a,4,9,9a-tetrahydrofuro [2,3-b] quinoxaline-3-carboxylic acid]
% of diseased mice and of died mice (influenza virus B; per os, 1 mg per animal): 27% | Efficiency, % (influenza virus B; per os, 1 mg per animal): 65% | Elongation of animals life in test group compared with control (influenza virus B; per os, 1 mg per animal): 2.2 days | Mean incubation period (influenza virus B; per os, 1 mg per animal): 10.0 days | Factor of reduction of number of diseased mice (protection factor) (influenza virus B; per os, 1 mg per animal): 2.9

CCN1c2ccccc2NC2C(C(=O)OC3CC4CCC3(C)C4(C)C)=C(C)OC21 (stereo not shown) [compound 1c, bornyl-2-methyl-9-ethyl-3a,4,9,9a-tetrahydrofuro [2,3-b] quinoxaline-3-carboxylate]
% of diseased mice and of died mice (influenza virus B; per os, 1 mg per animal): 25% | Efficiency, % (influenza virus B; per os, 1 mg per animal): 64% | Elongation of animals life in test group compared with control (influenza virus B; per os, 1 mg per animal): 2.4 days | Mean incubation period (influenza virus B; per os, 1 mg per animal): 11.0 days | Factor of reduction of number of diseased mice (protection factor) (influenza virus B; per os, 1 mg per animal): 2.8

CC(N)C12CC3CC(CC(C3)C1)C2 (stereo not shown) [remantadine, reference compound]
Toxicity for mice (mice [1]): 6 mg/mouse | LD50 [2]: 640 mg/kg | % of diseased mice and died mice (influenza virus B; [14]): 20% | Efficiency, % (influenza virus B; [14]): 73% | Elongation of animal life in test group (compared with control) (influenza virus B; [14]): 2.3 days | Mean Incubation (influenza virus B; [14]): 10.9 | Protection factor (influenza virus B; [14]): 3.7

bornyl-3a,5-dimethyl-2-phenyl-3a,4,4a,5,10,10a-hexahydro-1,3,4-thiadiazole[2,3-a] quinoxaline (2,3-d) pyrrole-4-carboxylate [compound 1d]
% of diseased mice and of died mice (influenza virus B; per os, 1 mg per animal): 20% | Efficiency, % (influenza virus B; per os, 1 mg per animal): 72% | Elongation of animals life in test group compared with control (influenza virus B; per os, 1 mg per animal): 2.5 days | Mean incubation period (influenza virus B; per os, 1 mg per animal): 11.0 days | Factor of reduction of number of diseased mice (protection factor) (influenza virus B; per os, 1 mg per animal): 3.6

isobornyl 3a,5-dimethyl-2-phenyl-3a,4,4a,5,10,10a-hexahydro-1,3,4-thiadiazole [2,3-a] quinoxaline [2,3-d]-pyrrole-4-carboxylate [compound 1e]
% of diseased mice and of died mice (influenza virus B; per os, 1 mg per animal): 21% | Efficiency, % (influenza virus B; per os, 1 mg per animal): 71% | Elongation of animals life in test group compared with control (influenza virus B; per os, 1 mg per animal): 2.4 days | Mean incubation period (influenza virus B; per os, 1 mg per animal): 10.9 days | Factor of reduction of number of diseased mice (protection factor) (influenza virus B; per os, 1 mg per animal): 3.4
